# Measurements reported in US6737397B1, “Control of cancer growth through the interaction of [MET5]-enkephalin and the zeta receptor” (The Penn State Research Foundation, priority 1996, dated 2004).
# Several values for one entry are separate records, joined by “and”; a condition that tells them apart may be missing. Equal values may be shown once. Read-outs that look alike come from different tables or passages of the source. Marks after values point to notes of the source that are not given here.
# Key:
# ζ-opioid receptor [1] = molecular target: T1, ζ-opioid receptor (Homo sapiens, UniProt Q9NZT2); assay: Effect of cations and guanyl nucleotides on [3H]-[Met5]-enkephalin binding to HT-29 nuclear homogenates; set-up: from tissue; host or cells: HT-29 human colon tumor xenografts grown in athymic nude mice; nuclear (P1) and other subcellular fractions; settings: 5, 100, 200, or 500 μM
# T1 sequence (Q9NZT2 1-677): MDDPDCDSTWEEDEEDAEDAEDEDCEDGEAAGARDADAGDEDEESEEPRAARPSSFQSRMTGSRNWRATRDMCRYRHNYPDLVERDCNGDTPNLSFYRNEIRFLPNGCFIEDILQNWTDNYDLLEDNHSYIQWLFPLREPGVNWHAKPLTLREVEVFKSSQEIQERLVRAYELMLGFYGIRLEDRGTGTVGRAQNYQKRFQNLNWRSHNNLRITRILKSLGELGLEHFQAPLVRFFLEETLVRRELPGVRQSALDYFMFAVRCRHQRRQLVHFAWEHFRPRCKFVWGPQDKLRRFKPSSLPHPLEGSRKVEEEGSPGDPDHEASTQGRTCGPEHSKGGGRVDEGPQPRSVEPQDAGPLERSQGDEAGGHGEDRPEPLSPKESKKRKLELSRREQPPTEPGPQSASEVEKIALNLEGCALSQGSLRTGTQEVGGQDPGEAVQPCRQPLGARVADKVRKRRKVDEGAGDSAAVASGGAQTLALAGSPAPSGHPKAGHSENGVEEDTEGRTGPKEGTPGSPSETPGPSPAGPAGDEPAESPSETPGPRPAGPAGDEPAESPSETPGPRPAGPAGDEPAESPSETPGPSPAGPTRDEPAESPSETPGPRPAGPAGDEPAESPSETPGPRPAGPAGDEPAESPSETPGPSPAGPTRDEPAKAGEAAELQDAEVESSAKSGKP
# Text: Histograms represent the percent of specific binding±SE.
# μ-opioid receptor = molecular target: T2, μ-opioid receptor (Homo sapiens, UniProt P35372); assay: [3H]DAMGO binding to HT-29 nuclear (P1) and membrane (P2) homogenates; settings: P2 fraction
# T2 construct: from tissue; host or cells: HT-29 human colon tumor xenografts from nude mice; nuclear (P1) and membrane (P2) homogenates
# HT-29 cells = assay: Growth assay (cell counts) of HT-29 human colon cancer cells in culture; format: cell-based
# Description: In some examples, cultures of HT-29 cells were maintained in McCoy's 5A media without fetal calf serum.
# (§1) Cells were seeded at equivalent amounts into 75 cm^2 flasks or into 9.6 cm^2 wells (6-well plates, Falcon) and were counted 24 hr later to determine plating efficiency. Drugs or sterile water were added beginning 24 hr after seeding (=0 hours) and both media and drugs were changed daily. All drugs were prepared in sterile water and dilutions represent final concentrations of the compounds. At appropriate times, cells were harvested with 0.05% trypsin/0.53 mM EDTA, centrifuged, and counted with a hemacytometer at 200×. Cell viability was determined by trypan blue staining. At least 2 aliquots/flask or well were counted and 2 flasks or wells/time point/treatment group were sampled.
# COLO 205 cells = assay: Growth assay (cell counts) of COLO 205 human colon cancer cells; format: cell-based; settings: 10^−6 M, 48 hr
# Description: (§2) HT-29, WiDr, and COLO 205 cell lines were obtained from the American Type Culture Collection (Rockville, Md.). HT-29 cells were grown in McCoy's 5A media (modified), WiDr cells in Minimum Essential Media, and COLO 205 cells in RPMI 1640 media; all media contained 10% fetal calf serum, 2 mM […], 1.2% sodium bicarbonate and antibiotics (11 Units/ml penicillin, 10 μg/ml streptomycin, 10 μg/ml neomycin) in a humidified atmosphere of 7% CO2/93% air at 37° C. In some examples, cultures of HT-29 cells were maintained in McCoy's 5A media without fetal calf serum.
# as §1
# (§3) To examine the ubiquity of opioid activity with respect to colon cancer, two other colon cancer cell lines were investigated: COLO 205 and WiDr.
# WiDr cells = assay: Growth assay (cell counts) of WiDr human colon cancer cells; format: cell-based; settings: 10^−6 M, 48 hr
# Description: as §2, §1, §3
# [2] = molecular target: T3, [Met5]-enkephalin receptor (Homo sapiens, UniProt Q9NZT2); assay: [3H]-[Met5]-enkephalin binding on HT-29 cells after 48 h exposure to OGF or NTX (receptor regulation)
# T3 construct: endogenous in cells; host or cells: HT-29 human colon cancer cells, log phase, nuclear pellet (P1)
# T3 sequence (Q9NZT2 1-677): T1 sequence (Q9NZT2 1-677)
# Description: Log phase cells were incubated in 0.05% trypsin for at least 30 min with gentle agitation at 37° C. in order to reduce clumping of cells and facilitate isolation of cell nuclei. Preparations were homogenized (Polytron, setting 6, 2×10 sec) in a 1:20 (wt/vol) solution (=Tris/all) of cold 50 mM Tris HCl buffer with 0.1 mg/ml bacitracin, 1 μg/ml leupeptin, 60 nM thiorphan, 1 mM EGTA, and 0.6 mg/l PMSF, pH 7.4, at 4° C. […] Protein homogenates of P1 were diluted with Tris/all and incubated at room temperature (22° C.) for 20 min to remove endogenous opioid peptides.
# The final volume of the incubation mixture was 1 ml. The incubation was terminated by rapid filtration through Whatman GF-B filters under vacuum pressure with a Brandel Cell Harvester. Filters were rinsed three times with 5 ml volumes of ice-cold 50 mM Tris buffer, dried at 60° C. for 1 hour, and counted in a 2:1 solution of Aquasol-toluene by liquid scintillation spectrometry (Beckman LS-2800). […] Duplicate tubes of homogenates were assayed for each-concentration utilized. Protein concentrations were determined by the BioRad method with gamma globulin as a standard.
# [3] = test system: BxPC-3 human pancreatic tumor cells; assay: BxPC-3 human pancreatic tumor xenografts in nude mice treated with OGF; format: in vivo
# Description: BxPC-3 human pancreatic cancer cells, purchased from the American Type Culture Collection (Rockville, Md.), were grown in RPMI media containing 10% fetal calf serum, penicillin (10 units/ml), and streptomycin (100 μg/ml) in an atmosphere of 93% air and 7% CO2 at 37° C. Cell viability was determined by the trypan blue exclusion test. Three-to-4-week-old male athymic nude mice, obtained from Charles River Laboratories (Wilmington, Mass.), were injected subcutaneously over the right shoulder with BxPC-3 cells (log phase) in a 0.5 ml suspension of RPMI media. The day of tumor cell inoculation was considered day 0. Mice were evaluated daily and the date that the tumor became ‘visible’ was recorded. Individual tumors were measured with vernier calipers every 2 days. Measurements of the largest perpendicular dimensions were recorded and tumor volume was calculated using the formula: length×width^2×0.5[25]. The time of ‘initial’ appearance of a tumor wag considered to be the day when tumor volume was 5 mm^3 of greater. All mice were euthanized and necropsied 30 days after tumor cell inoculation. Tumor tissues for receptor binding assays, radioimmunoassays, and immunocytochemistry were rapidly frozen in liquid nitrogen and stored at −70° C. until assayed.
# Drug treatment was initiated on the day of tumor cell inoculation. […] Injections were administered in the right or left flank. Animals were weighed weekly and appropriate dosage adjustments made.
# The latencies for visible and initial tumor appearance, as well as the appearance of a tumor volume measuring 62.5 mm^3 (when each perpendicular measurement was 5 mm), were recorded.
# Latencies for visible and initial appearance as well as tumors ≧62.5 mm were analyzed using one way analysis of variance; subsequent comparisons were made with the Newman-Keuls tests. The number of mice with initial tumor appearance on selected days was expressed as a ratio of the total number of mice in the group, and comparisons of percentages were made with chi-square tests.
# ζ opioid receptor = ζ opioid receptor (Homo sapiens, UniProt Q9NZT2)
# Description: Receptor binding assays were performed according to procedures reported elsewhere [8] with some slight modifications. […] Six assays were performed to establish binding kinetics in control tumor tissue, whereas three independent assays were conducted on tumors from mice for comparison of OGF and control groups.
# Receptor binding data were analyzed with a Lundon 1 (Saturation Isotherm Binding Analysis) computer program (Lundon Software, Chagrin Falls, Ohio) and Prism Software (San Diego, Calif.). Both analyses utilized non-linear least-squares regression. Saturation curves and Scatchard plots were computed directly by these programs.
# Mean binding affinities and capacities for tumor tissue from animals in the OGF and control groups were compared using analysis of variance and Newman-Keuls tests.
# [4] = test system: HT-29 human colon cancer cells; assay: HT-29 human colon cancer xenografts in nude mice treated with OGF and/or naloxone
# ζ-opioid receptor [5] = molecular target: T1, ζ-opioid receptor; assay: Competition for binding of [3H][Met5]enkephalin (4.0 nM) in nuclear homogenates of HT-29 human colon tumors; set-up: from tissue; host or cells: HT-29 human colon tumor xenografts grown in athymic nude mice; nuclear (P1) and other subcellular fractions
# ζ-opioid receptor [6] = molecular target: T1, ζ-opioid receptor; settings: nuclear preparation of cultured HT-29 cells
# ζ-opioid receptor [7] = molecular target: T1, ζ-opioid receptor; settings: for Bmax, fmol/mg protein: subcellular fractionation, P1 nuclear fraction
# ζ-opioid receptor [8] = molecular target: T1, ζ-opioid receptor
# [9] = 5 mg/kg OGF three times daily s.c.
# T2 sequence (P35372 whole entry): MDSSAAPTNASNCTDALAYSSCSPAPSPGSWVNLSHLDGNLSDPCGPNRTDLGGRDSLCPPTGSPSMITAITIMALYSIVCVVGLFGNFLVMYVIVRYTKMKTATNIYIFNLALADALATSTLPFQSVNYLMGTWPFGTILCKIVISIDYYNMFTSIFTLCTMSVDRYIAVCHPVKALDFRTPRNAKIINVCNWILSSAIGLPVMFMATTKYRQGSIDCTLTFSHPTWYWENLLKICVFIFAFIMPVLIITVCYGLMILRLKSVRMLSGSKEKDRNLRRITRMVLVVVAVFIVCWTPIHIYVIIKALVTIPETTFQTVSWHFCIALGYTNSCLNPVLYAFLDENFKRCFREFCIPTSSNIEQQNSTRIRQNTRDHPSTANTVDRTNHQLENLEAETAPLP
compound,measurement,setting,value
"Nc1nc2c(ncn2C2OC(COP(=O)([O-])OP(=O)([O-])NP(=O)([O-])[O-])C(O)C2O)c(=O)[nH]1.[Li+].[Li+].[Li+].[Li+] (stereo not drawn) [GppNHp, guanylyl-imidodiphosphate (GppNHp) tetralithium salt]",effect on binding of [3H]-[Met5]-enkephalin,ζ-opioid receptor [1],not markedly reduced
C[C@@H](NC(=O)[C@@H](N)Cc1ccc(O)cc1)C(=O)NCC(=O)N(C)[C@@H](Cc1ccccc1)C(=O)NCCO [[3H]DAMGO],"Bmax, fmol/mg protein",μ-opioid receptor,20.9 ± 4.8 fmol/mg protein
[Met^5]-enkephalin,cell number greater after removal than in cultures maintained with peptide,HT-29 cells,more than 80%
same,cell number versus controls,HT-29 cells,comparable to controls
same,decrease in cell number from control values,HT-29 cells,35%
same,effect on cell growth in serum-free media,HT-29 cells,inhibitory effect on cell growth
same,more cells after removal than in cultures continuing to receive peptide,HT-29 cells,37%
same,reduction in number of colon cancer cells,HT-29 cells,41% and 56%
same,fewer cells than control cultures,COLO 205 cells,58%
same,fewer cells than control cultures,WiDr cells,41%
same,Bmax of [3H]-[Met5]-enkephalin,[2]; HT-29 cells after 48 h of exposure to the treatment,18.6 ± 1.1
same,Bmax reduced versus control cells,[2]; chronic exposure (48 h),50%
same,Number of mice with tumors 7 days after tumor cell inoculation,[3]; 5 mg/kg OGF three times daily,0/13*
same,Number of mice with tumors 14 days after tumor cell inoculation,[3]; 5 mg/kg OGF three times daily,5/13*
same,Number of mice with tumors 15 days after tumor cell inoculation,[3]; 5 mg/kg OGF three times daily,8/13*
same,Number of mice with tumors 22 days after tumor cell inoculation,[3]; 5 mg/kg OGF three times daily,12/13
same,Number of mice with tumors 30 days after tumor cell inoculation,[3]; 5 mg/kg OGF three times daily,12/13
same,interval from inoculation to initial tumor appearance longer than sterile water,[3]; 5 mg/kg OGF three times daily,43%
same,latency until tumor reached 62.5 mm^3 longer than control group,[3]; 5 mg/kg OGF three times daily,~41%
same,visible tumors developed later than controls,[3]; 5 mg/kg OGF three times daily,more than 3 days
same,Latency (days) for tumors of 62.5 mm^3 in size,[3]; [9],17.2 ± 1.1 days
same,Latency (days) for visible tumor,[3]; [9],12.7 ± 1.4 days
same,Latency (days) for initial tumor appearance,"[3]; 5 mg/kg OGF three times daily s.c., listed as OGF",15.2 days and 15.2 ± 1.2 days
same,animals without a neoplasia,[3]; day 15,~40%
same,mice with a tumor measuring ≧5 mm^3,[3]; fifteen days after tumor cell inoculation,less than 62%
same,mean tumor volumes versus control group,[3]; within the 30 days of the experiment,no significant differences
same,binding affinity versus control group,ζ opioid receptor; tumors from OGF-treated mice,did not differ
same,binding sites reduced from control levels,ζ opioid receptor; tumors from OGF-treated mice,58%
same,"Bmax, fmol/mg protein",ζ opioid receptor; tumors from mice treated with 5 mg/kg OGF three times daily,24.6 ± 5.2 fmol/mg protein
same,Latency for measurable tumor appearance,[4]; 0.5 mg/kg daily,28.0 ± 0.0 days
same,"Latency for measurable tumor appearance, days, range",[4]; 0.5 mg/kg daily,(28) days
same,Latency for palpable tumor,[4]; 0.5 mg/kg daily,18.6 ± 3.2 days
same,Latency for visible tumor,[4]; 0.5 mg/kg daily,22.4 ± 2.6 days
same,No. of mice with tumors 21 days after inoculation,[4]; 0.5 mg/kg daily,2/14†
same,No. of mice with tumors 50 days after inoculation,[4]; 0.5 mg/kg daily,7/14*
same,Latency for measurable tumor appearance,[4]; 5 mg/kg daily,22.2 ± 2.3 days
same,"Latency for measurable tumor appearance, days, range",[4]; 5 mg/kg daily,(13-22) days
same,Latency for palpable tumor,[4]; 5 mg/kg daily,19.2 ± 2.2 days
same,Latency for visible tumor,[4]; 5 mg/kg daily,20.2 ± 2.2 days
same,No. of mice with tumors 21 days after inoculation,[4]; 5 mg/kg daily,4/14†
same,No. of mice with tumors 50 days after inoculation,[4]; 5 mg/kg daily,6/14†
same,Latency for measurable tumor appearance,[4]; 25 mg/kg daily,24.0 ± 4.5 days
same,"Latency for measurable tumor appearance, days, range",[4]; 25 mg/kg daily,(12-32) days
same,Latency for palpable tumor,[4]; 25 mg/kg daily,22.0 ± 4.5 days
same,Latency for visible tumor,[4]; 25 mg/kg daily,23.0 ± 4.5 days
same,No. of mice with tumors 21 days after inoculation,[4]; 25 mg/kg daily,2/14†
same,No. of mice with tumors 50 days after inoculation,[4]; 25 mg/kg daily,6/14†
same,animals with a tumor,"[4]; 50 days after inoculation, 0.5, 5, or 25 mg/kg OGF",36-50%
same,mice that never developed xenografts of colon cancer,"[4]; all OGF doses, 7-wk experimental period",57%
same,mice with a measurable tumor,"[4]; by day 21, 0.5, 5, or 25 mg/kg OGF",14-28%
same,dose-response of tumor incidence and delay in oncogenesis,"[4]; mouse, in vivo",no distinct dose-response effect
same,greater ability to displace [3H]-[Met5]-enkephalin than the next ranking compound,ζ-opioid receptor [5],2.3 fold
[^3H]-[Met^5]-enkephalin,binding capacity (Bmax),ζ-opioid receptor [6],43 fmol/mg protein
same,mean binding capacity (Bmax),"ζ-opioid receptor [7]; P1 nuclear homogenates of HT-29 tumors, 150 min, 22° C., pH 7.4",364.8±25.7 fmol/mg protein
same,"Bmax, fmol/mg protein",ζ-opioid receptor [7],256.0±12.6 fmol/mg protein
same,"Bmax, fmol/mg protein",ζ-opioid receptor [7]; listed as [^3H][Met^5]enkephalin,256.0 ± 12.6 fmol/mg protein
same,"Bmax, fmol/mg protein","ζ-opioid receptor [8]; Patient 1, splenic flexure adenocarcinoma",34.3 ± 9.0 fmol/mg protein
same,"Bmax, fmol/mg protein","ζ-opioid receptor [8]; Patient 2, sigmoid adenocarcinoma",32.7 ± 1.4 fmol/mg protein
same,mean binding capacity (Bmax),ζ-opioid receptor [8]; data from both patients averaged,33.5±4.1 fmol/mg protein
same,binding capacity (Bmax),ζ opioid receptor; tumor tissue from control animals,46.8±4.0 fmol/mg protein
